Results as given in patent publication US20260217652A1, “PHENYL-SUBSTITUTED HETEROARYL COMPOUND AND PHARMACEUTICAL COMPOSITION COMPRISING SAME, PREPARATION METHOD THEREFOR AND USE THEREOF” (SHANGHAI MEIYUE BIOTECH DEVELOPMENT CO., LTD., priority 2023, published 2026).

Experiments:
[1] = In vitro liver microsome stability, rat; type: in vitro ADME; settings: liver microsomes, 0.5 mg/mL microsomes, 1 μM compound, NADPH, 37° C., read-out: Rat liver microsomes Half-life T1/2
Method: (§1) The reference compound used in this experiment was Ketanserin, and the final concentration of microsomes in the experimental system was 0.5 mg/mL. The PBS buffer was a 50 mM K2HPO4 buffer. The concentration of the test compound was 1 μM. The microsomes were added to PBS, and the control/test compounds were respectively added to the corresponding reaction systems, mixed thoroughly, and pre-incubated in a 37° C. water bath for 5 minutes. The reaction was initiated by adding 20 mM NADPH solution under 37° C. water bath conditions (for the No NADPH samples, an equal volume of PBS solution was used as a substitute for the 20 mM NADPH solution). At the reaction time points of 0 min, 10 min, 30 mun, 60 min, and 90 min, 30 μL of reaction samples were taken from each reaction system (for the No NADPH samples, sampling was performed at 0 min and 90 min), and the reaction was immediately terminated by adding 300 μL of the internal standard acetonitrile solution. After centrifugation at 4000 rpm, the supernatant was taken and mixed thoroughly with an equal volume of pure water. The samples at each time point were analyzed by LC-MS/MS (AB Triple Quard 5500) to determine the compound content, and the T1/2 was calculated.

p38 MAPK/MK2 = biological target: T1, p38 MAPK/MK2 (Homo sapiens, UniProt Q16539); assay: In vitro activity assay of p38 MAPK/MK2 (Z-LYTE kinase assay kit); type: biochemical; settings: active p38α, inactive MK2, Ser/Thr 4; 1-hour reaction at 20° C.
T1 construct: purchased Carna (p38α); Abcam (MK2) 04-152; 79910
T1 sequence (Q16539 whole entry): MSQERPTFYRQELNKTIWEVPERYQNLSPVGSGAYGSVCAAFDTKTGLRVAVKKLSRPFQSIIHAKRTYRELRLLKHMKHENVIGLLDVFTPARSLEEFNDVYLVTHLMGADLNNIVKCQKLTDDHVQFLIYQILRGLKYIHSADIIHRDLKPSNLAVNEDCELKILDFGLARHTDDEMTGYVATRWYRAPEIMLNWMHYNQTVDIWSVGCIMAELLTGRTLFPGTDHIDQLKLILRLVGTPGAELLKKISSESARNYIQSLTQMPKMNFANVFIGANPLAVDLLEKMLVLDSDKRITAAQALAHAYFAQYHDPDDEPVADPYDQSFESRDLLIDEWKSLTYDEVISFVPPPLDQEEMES
T1 sequence (P49137 whole entry partner): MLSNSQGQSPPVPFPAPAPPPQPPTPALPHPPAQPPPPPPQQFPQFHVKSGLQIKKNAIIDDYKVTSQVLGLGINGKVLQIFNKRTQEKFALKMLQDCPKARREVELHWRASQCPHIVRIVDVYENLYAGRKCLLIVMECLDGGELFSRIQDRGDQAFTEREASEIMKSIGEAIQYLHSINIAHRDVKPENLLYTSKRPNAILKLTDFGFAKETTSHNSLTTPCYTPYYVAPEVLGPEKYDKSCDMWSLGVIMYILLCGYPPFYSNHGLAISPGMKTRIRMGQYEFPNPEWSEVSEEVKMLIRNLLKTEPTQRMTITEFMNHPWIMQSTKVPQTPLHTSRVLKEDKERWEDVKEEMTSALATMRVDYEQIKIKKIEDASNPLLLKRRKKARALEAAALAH
Summary of the method: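 FRET-based Z-LYTE assay; compound tested from […] top concentration, 5-fold serial dilution, 8 points, duplicate wells, 1% DMSO. Kinase reaction 1 h at 20° C, then development reagent 1 h at room temperature; fluorescence read at Ex 400/Em 445 and 520 nm. IC50 from concentration-effect curve fit.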

[2] = In vitro liver microsome stability, mouse; type: in vitro ADME; settings: liver microsomes, 0.5 mg/mL microsomes, 1 μM compound, NADPH, 37° C., read-out: Mouse liver microsomes Half-life T1/2
Method: as §1

[3] = In vitro liver microsome stability, human; type: in vitro ADME; settings: liver microsomes, 0.5 mg/mL microsomes, 1 μM compound, NADPH, 37° C., read-out: Human liver microsomes Half-life T1/2
Method: as §1

[4] = tested on: TNF-α in human PBMC cells; assay: In vitro TNF-α activity assay in human PBMC cell supernatant (LPS, ELISA); type: cell-based; settings: Homo sapiens, PBMC, 24 h, LPS 100 ng/mL, read-out: p38 MAPK/TNF-α IC50
Method: The inhibitory effect of the compound on TNF-α in the supernatant of human PBMC cells was evaluated using an ELISA detection kit (Beyotime, PI518). The test compound was dissolved in DMSO to obtain a 10 mM stock solution and stored at −20° C. for future use. The initial concentration of the compound was […], followed by 5-fold serial dilution to obtain 6 concentrations. Cells were plated in duplicate, and ELISA was performed in single wells. The final concentration of DMSO was 0.4%. Alternatively, the initial concentration of the compound, dilution factor, number of concentration gradients, and replicates could be adjusted based on the specific screening conditions.
Fresh human peripheral blood mononuclear cells (PBMCs) (Sailybio) were seeded at a density of 2×10^5 cells per well in a 96-well plate (Corning, 3599), with each well containing 100 μL of RPMI-1640 (Gibco #A1049101)+10% FBS (Gibco, 10099141C), and incubated overnight at 37° C. under 5% CO2. Test compounds were added to the 96-well culture plate at a volume of 25 μL per well. After 1 hour, 5 μL of LPS was added to achieve a final concentration of 100 ng/mL. No LPS and compound were added to the negative control wells, and no compound was added to the positive control wells. The mixture was further incubated for 24 hours at 37° C. under 5% CO2. Subsequently, the cell culture supernatant was collected by centrifugation at 500 rcf for 8 minutes. The concentration of TNF-α was measured according to the operation manual of the ELISA kit. The concentration-effect curve was fitted using GraphPad Prism 8 software, and the compound concentration resulting in 50% inhibition, IC50, was calculated.

p38 MAPK/MK5 = biological target: T2, p38 MAPK/MK5 (Homo sapiens, UniProt Q16539); assay: In vitro activity assay of p38 MAPK/MK5 (Z-LYTE kinase assay kit); type: biochemical; settings: active p38α, inactive MK5, Ser/Thr 4; 4-hour reaction at 20° C.
T2 construct: purchased Carna (p38α); Abcam (MK5) 04-152; 217826
T2 sequence (Q16539 whole entry): as the sequence (Q16539 whole entry) above
Method: The inhibitory effect of the compound on p38 MAPK/MK5 was evaluated using the Z-LYTE kinase assay kit (Thermo, PV3177). The test compound was dissolved in DMSO to obtain a 10 mM stock solution and stored at −20° C. for future use. The initial concentration of the compound was […], with 1% DMSO, 5-fold serial dilution, 8 concentrations, and duplicate wells. […] After a 4-hour reaction at 20° C., Development Reagent A diluted 2048-fold was added to each well, followed by incubation at room temperature for 1 hour. The reaction was terminated by adding 5 µL of stop buffer, and the plate was read using a microplate reader (Ex. 400 nm, Em. 445 nm; Ex. 400 nm, Em. 520 nm). The concentration-effect curve was fitted using GraphPad Prism 8 software, and the compound concentration resulting in 50% inhibition, IC50, was calculated.

## CNC(=O)c1cccc(-c2ncc(C)c(-n3c(C)cc(OCc4ncc(F)cc4F)c(Cl)c3=O)c2F)c1 [Compound 31-P1]
[1]
  half-life at 1 μM: 2.76 h
p38 MAPK/MK2
  IC50: 2.79 nM
[2]
  half-life at 1 μM: 1.79 h
[3]
  half-life at 1 μM: > 4.66 h
[4]
  IC50: 3.79 nM
p38 MAPK/MK5
  IC50: 4340 nM
